Results as given in US9604987B2, “Synthesis of autophagy inducing compound and the uses thereof” (Hong Kong Baptist University, priority 2012, dated 2017).

How the values were obtained:
[1] = system: N2a cells; assay: Western blot of autophagy marker LC3-II in N2a cells; type: cell-based, mouse; conditions: N2a, oxindole alkaloids, 12 hours
Experimental: Native and denatured PAGE and Western blotting analysis. Samples to be run under denaturing conditions were lysed with RIPA lysis buffer (150 mM NaCl, 50 mM Tris-HCl, 0.35% sodium deoxycholate, 1 mM EDTA, 1% NP40, 1 mM PMSF, 5 μg/ml aprotinin, 5 μg/ml leupeptin). Samples for native gels were lysed with detergent-free lysis buffer (50 mM Tris/HCl pH 7.4, 175 mM NaCl, 5 mM EDTA pH 8.0, 1 mM PMSF, 5 μg/ml aprotinin, 5 μg/ml leupeptin), and sheared 5 times through a 28-gauge needle followed by 2 times of sonication for 5 seconds according to previously described protocol. For denaturing, SDS-PAGE was performed using Tris-Glycine SDS running buffer and SDS sample buffer, and for native conditions, native-PAGE was run with detergent-free Tris-Glycine running buffer (BN2007, Invitrogen) and 4× native sample buffer (BN2003, Invitrogen) on a pre-casted native PAGE gel (BN1002BOX, Invitrogen). The proteins on the gels were then transferred to PVDF membrane (RPN303F, GE Healthcare) and processed for immunoblotting. Membranes were blocked with 5% non-fat milk and probed with the appropriate primary and secondary antibodies. The desired bands were visualized using the ECL kit (32106, Pierce). The band density was quantified using the ImageJ program and normalized to that of the control group.
In order to confirm the neuronal autophagy inducing activity of Cory B (its chemical structure is shown in FIG. 1A), mouse neuroblastoma N2a, rat phenochromocytoma PC12 and human neurobastoma SH-SY5Y are treated with different concentrations of Cory B for 24 hours and cell lysates are subjected to western blotting analysis of LC3-II expression which is an autophagy-specific marker.
To confirm that enhancement of autophagy markers by Cory B is due to induction of autophagy rather than blockage of autophagosome maturation, N2a cells are treated with 25 μM Cory B or 30 μM lysosome inhibitor CQ together with Cory B for 12 hours. Cell lysates are subject to western blot analysis. Data are presented as the mean±SEM from 3 independent experiments (***p<0.001, one-way ANOVA for multiple comparison and Tukey's test as post hoc test). Both LC3-II levels and the number of GFP-LC3 puncta in the Cory B and CQ co-treatment group are much higher than in the CQ-alone treatment group (FIG. 2A-D). Meanwhile, Cory B induces GFP-LC3 puncta formation is abolished by treatment of 5 mM autophagy inhibitor 3-MA for 24 hours (FIG. 2C, D). Cells were fixed in 4% paraformaldehyde and analyzed under a confocal microscope. Data are presented as the mean±SEM of one representative experiment from three independent experiments. (***p<0.001, one-way ANOVA for multiple comparison and Tukey's test as post hoc test). […] Thus, Cory B is indeed an autophagy inducer in neuronal cells.
To compare the activities of oxindole alkaloids on autophagy induction, LC3II expression levels in N2a cells after treatment with Corynoxine B (Cory B) (FIG. 8A), Corynoxine (Cory) (FIG. 8B), Rhynchophylline (Rhy) (FIG. 8C) and Isorhynchophylline (IsoRhy) for 12 hours are examined.
In order to examine the pro-autophagic activities of the synthesized Cory B analogues, neuroblastoma 2a, a neuronal cell line, are treated with various concentrations of the analogues for 12 hrs. The cells are then harvested and lysed with RIPA buffer (150 mM NaCl, 50 mM Tris-HCl pH 7.4, 0.35% sodium deoxycholate, 1 mM EDTA, 1% NP40, 1 mM PMSF, 5 μg/ml aprotinin, 5 μg/ml leupeptin). The sample are lysed on ice with occasional vortex for 30 min, and then centrifuged at 14,000 rpm for 15 min at 4° C. The supernatant are collected and denatured at 95° C. in sample buffer for 5 min. The denatured samples are then separated on 15% SDS-PAGE gels and transferred to PVDF membrane. Membranes are then blocked with 5% non-fat milk and probed with appropriate primary and secondary antibodies. The protein signals of LC3II, marker protein of autophagy, are finally visualized with ECL kit and the protein bands density are quantified by ImageJ program. […]

[2] = system: N2a Swedish APP cells; assay: APP reduction in N2a Swedish APP cells (western blot); type: cell-based, mouse; conditions: different concentrations, with or without CQ and 3MA
Experimental: N2a Swedish APP cells are incubated with different concentration of Cory and Cory B in the presence or absence of CQ and 3MA. […] Tg2567 APP mice, 3 months old JNPL P301 Tau mice and WT mice intraperitoneally are administrated with 20 mg/kg/d CoryB.

SMILES | autophagy induction (LC3II expression level) [1] | full length and CTF APP [2]
CC[C@@H]1CN2CC[C@@]3(C(=O)Nc4ccccc43)C2C[C@@H]1C(=COC)C(=O)OC (stereo partly shown) [Cory, corynoxine] | significantly activate autophagy | dose-dependently reduce both full length and CTF APP
CC[C@H]1CN2CC[C@@]3(C(=O)Nc4ccccc43)[C@@H]2C[C@@H]1/C(=C\OC)C(=O)OC [IsoRhy, Isorhynchophylline, reference compound] | did not show any activity on autophagy induction | –
CC[C@H]1CN2CC[C@]3(C(=O)Nc4ccccc43)[C@@H]2C[C@@H]1/C(=C\OC)C(=O)OC [Rhy, Rhynchophylline, reference compound] | did not show any activity on autophagy induction | –
